Test system: MRSA (methicillin resistant Staphylococcus aureus)
Assay: Antibacterial test: survival ratio of MRSA versus cultivation time in medium
Type: cell-based
Settings: physiological saline, dilution 10^-3, pH 12.7
Protocol: Antibacterial tests were then performed. The relation between the cultivation time (minute) of MRSA in a cultivation medium and the survival ratio (%) of the bacteria was measured in the test shown in Table 1. The cultivation media of MRSA were physiological saline ([…]), physiological saline containing the bactericide for MRSA of the invention ([…]) and physiological saline containing a reagent NaOH (medium 3). The degree of dilution of both the bactericide for MRSA and the reagent (NaOH) was 10^−3, and pH of both solutions was 12.7.

[Na+].[OH-] [Medium 3, NaOH]
survival ratio of the bacteria (cultivation time 0 minutes): 100% | survival ratio of the bacteria (cultivation time 15 minutes): Measurement was impossible | survival ratio of the bacteria (cultivation time 30 minutes): 0.0057%

Reference: patent publication US20070031507A1, “Bactericide for MRSA” (priority 2001, published 2007)
